The subject of one assay is PEO4 cells. Description: Relative re-sensitisation ratio of apoptosis induction (caspase 3/7 normalised to MTT) with cisplatin. The note with it: compound at 20 μM, triciribine at 25 μM, cisplatin 25 μM, 24 h. The assay is classed as cell-based. On the procedure:
Cell viability was determined for different assays (as described in FIGS. 1 and 2, Table 5) in optically clear 96 well plates using the standard 3-(4, 5-dimethylthiazol-2-yl)-2, 5-diphenyl tetrazolium bromide (MTT) assay, which is a colorimetric method for determining the number of metabolically active cells in cytotoxicity assays. MTT is bioreduced by mitochondrial dehydrogenase enzymes into a coloured solid formazan product. MTT reagent (Sigma, UK) was initially prepared by dissolving in PBS at a concentration of 3 mg/ml. Following relevant drug treatments at different time points and cell lines (described in results section and FIGS. 1 and 2), MTT reagent was added to each experimental well at a final concentration of 0.5 mg/ml. After incubation for 3 h at 37° C. 5% CO2, an equal volume of stop solution (10% SDS in 0.01% HCl) was added and formed formazan crystals were allowed to dissolve shaking overnight. The following day, the optical density was read at 570 nm and analysis performed as per each assay type.
The caspase 3/7 activity of cells following treatment with inhibitor compounds or vehicle (DMSO) was determined using the Caspase-Glo® 3/7 Assay (Catalogue number G8093, Promega, US) according to manufacturer's instructions. Briefly, 10,000 cells per well for PEO1 and PEO4 cell lines or 5000 cells per well for SKOV3 cell line were grown in 96 well plates in a final volume of 50 μl and following relevant drug treatment of cells (example compound±cisplatin, comparative example compound±cisplatin, or vehicle±cisplatin) for 24 hours, an equal volume of Caspase-Glo® Reagent containing a luminogenic substrate for Caspase 3 and Caspase 7 was added i.e. if cells cultured in 50 μl of media, 50 μl of caspase reagent was added. After 1 h incubation at room temperature in the dark, the luminescence of each sample was measured in a plate-reading luminometer (LUMIstar OPTIMA, BMG Labtech, Germany). Caspase 3/7 activity data was normalised to corresponding viability data from MTT and analysis was performed according to each experimental set-up.
. Apoptosis (caspase 3/7) and viability (MTT) assays were carried out as described for each assay protocols and the phenotypic apoptosis assays above. Relative apoptosis induction was inferred from caspase 3/7 assay values normalised to the standard MTT viability assay values of each corresponding well. […]

The target of a further assay is AKT1 (Homo sapiens, UniProt P31749). Description: AKT1 enzymatic inhibition assay (HTRF KinEASE). The assay is classed as biochemical. The note with it: read-out: AKT1 pIC50 (converted). On the procedure: (§1) The IC50 values of Example compounds of the invention for AKT1, AKT2 and AKT3 were measured using HTRF (Homogeneous Time Resolved Fluorescence) KinEASE assays (62ST3PEB—1000 tests or 62ST3PEC—20,000 tests) from cisbio.com, according to manufacturer's instructions.
On the technique in general: TR-FRET usually uses a lanthanide donor and a delayed reading to cut background.

Another assay addresses AKT2 (Homo sapiens, UniProt P31751). The experiment in a line: AKT2 enzymatic inhibition assay (HTRF KinEASE). The assay is classed as biochemical. The note with it: read-out: AKT2 pIC50 (converted). As to the method:
as §1

In the next assay the target is DNA-PK (Homo sapiens, UniProt P78527). The experiment in a line: DNA-PK enzymatic inhibition assay (HTRF KinEASE). The assay is classed as biochemical. The note with it: read-out: DNA-PK pIC50 (converted). On the procedure: The IC50 values of Example compounds of the invention for DNA-PK were measured using the HTRF KinEASE assay as described above.
A further assay addresses AKT3 (Homo sapiens, UniProt Q9Y243). The experiment in a line: AKT3 enzymatic inhibition assay (HTRF KinEASE). The assay is classed as biochemical. The note with it: read-out: AKT3 pIC50 (converted). On the procedure:
as §1

“And” between values parts separate entries of the source, which are not always exact repeats. Equal values may be shown once.

Sequence of AKT2 (P31751 152-409 limits assumed): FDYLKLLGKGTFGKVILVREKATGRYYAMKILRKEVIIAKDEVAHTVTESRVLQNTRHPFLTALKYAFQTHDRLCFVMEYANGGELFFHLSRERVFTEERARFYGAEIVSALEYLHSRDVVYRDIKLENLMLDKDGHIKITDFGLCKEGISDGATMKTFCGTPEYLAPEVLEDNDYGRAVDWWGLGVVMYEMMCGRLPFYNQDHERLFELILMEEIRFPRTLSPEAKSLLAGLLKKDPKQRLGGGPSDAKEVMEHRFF
Sequence of AKT3 (Q9Y243 148-405 limits assumed): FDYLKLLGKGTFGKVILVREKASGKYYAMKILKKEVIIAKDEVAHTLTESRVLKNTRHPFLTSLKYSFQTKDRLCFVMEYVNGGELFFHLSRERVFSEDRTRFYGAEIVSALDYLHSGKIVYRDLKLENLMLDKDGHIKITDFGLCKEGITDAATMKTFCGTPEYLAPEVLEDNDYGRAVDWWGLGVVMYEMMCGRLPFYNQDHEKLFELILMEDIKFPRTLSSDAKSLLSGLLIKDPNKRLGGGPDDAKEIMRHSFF
Sequence of AKT1 (P31749 150-408 limits assumed): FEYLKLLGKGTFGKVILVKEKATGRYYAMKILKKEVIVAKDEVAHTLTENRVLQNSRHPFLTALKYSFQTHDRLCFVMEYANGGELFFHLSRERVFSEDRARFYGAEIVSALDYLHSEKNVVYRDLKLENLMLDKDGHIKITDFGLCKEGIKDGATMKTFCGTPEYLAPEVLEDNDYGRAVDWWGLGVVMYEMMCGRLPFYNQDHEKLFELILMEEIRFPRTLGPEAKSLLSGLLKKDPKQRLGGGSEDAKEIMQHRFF

Turning to `CN(C)CCNC(=O)C(c1ccc(Cl)cc1)N1CCN(c2ncnc3[nH]nc(Br)c23)CC1` (single isomer, unassigned; (+)) [Example 3b, (+)-2-(4-(3-bromo-1H-pyrazolo[3,4-d]pyrimidin-4-yl)piperazin-1-yl)-2-(4-chlorophenyl)-N-(2-(dimethylamino)ethyl)acetamide], in the assay with PEO4 cells, the “Relative re-sensitisation ratio of apoptosis induction (caspase 3/7) relative to triciribine phosphate” value (“Relative re-sensitisation ratio” for short) was determined as 1.4. The IC50 on AKT1 is 15.1 nM; on AKT2 it was 34.7 nM; at DNA-PK, 10.5 nM; at AKT3, 5.25 nM.
On to `CN(C)CCNC(=O)C(c1ccc(Cl)cc1)N1CCN(c2ncnc3[nH]nc(Br)c23)CC1` (single isomer, unassigned; (-)) [Example 3a, (−)-2-(4-(3-bromo-1H-pyrazolo[3,4-d]pyrimidin-4-yl)piperazin-1-yl)-2-(4-chlorophenyl)-N-(2-(dimethylamino)ethyl)acetamide], for which, in the assay on PEO4 cells, the “Relative re-sensitisation ratio” value is reported as 2.7. Also, the IC50 is 4.47 nM and 1.58 nM at AKT1; 4.9 nM and 10.7 nM on DNA-PK.
With `CN(C)CCNC(=O)C(c1ccc(Cl)cc1)N1CCN(c2ncnc3[nH]nc(Br)c23)CC1` (stereo not shown) [Example 3, 2-(4-(3-bromo-1H-pyrazolo[3,4-d]pyrimidin-4-yl)piperazin-1-yl)-2-(4-chlorophenyl)-N-(2-(dimethylamino)ethyl)acetamide], in the assay with PEO4 cells, the “Relative re-sensitisation ratio” value worked out at 1.7.
Take `CN(C)C(=O)C(c1ccc(Cl)cc1)N1CCN(c2ncnc3[nH]nc(Br)c23)CC1` (stereo not shown) [Example 4, 2-(4-(3-bromo-1H-pyrazolo[3,4-d]pyrimidin-4-yl)piperazin-1-yl)-2-(4-chlorophenyl)-N,N-dimethylacetamide]: in the assay on PEO4 cells, the “Relative re-sensitisation ratio” value is 2.6. Further, the IC50 on AKT1 was 1350 nM; at AKT2, 2240 nM; on DNA-PK, 141 nM; on AKT3 it was 603 nM.
With `Cc1n[nH]c2ncnc(N3CCC(C(OCCN(C)C)c4ccc(Cl)cc4)CC3)c12` (stereo not shown) [Example 5, 2-((4-chlorophenyl)(1-(3-methyl-1H-pyrazolo[3,4-d]pyrimidin-4-yl)piperidin-4-yl)methoxy)-N,N-dimethylethan-1-amine], the “Relative re-sensitisation ratio” value in the assay on PEO4 cells was found to be 2.5. The IC50 at AKT1 was 12.6 nM; at AKT2, 27.5 nM; at DNA-PK, 7.08 nM; at AKT3, 7.24 nM.
Regarding `CCN(CC)CCS(=O)(=O)N(c1ccc(Cl)cc1)C1CCN(c2ncnc3[nH]nc(Br)c23)CC1` [Example 6, N-(1-(3-bromo-1H-pyrazolo[3,4-d]pyrimidin-4-yl)piperidin-4-yl)-N-(4-chlorophenyl)-2-(diethylamino)ethane-1-sulfonamide], the “Relative re-sensitisation ratio” value in the assay with PEO4 cells is 2.3. Also, the IC50 on AKT1 was 1.32 nM; at AKT2, 7.41 nM; at DNA-PK, 6.17 nM; on AKT3, 0.851 nM.
The corresponding values for `CN(C)CC(c1ccc(Cl)cc1)C1CCN(c2ncnc3[nH]nc(Br)c23)CC1` (stereo not shown) [Example 7, 2-(1-(3-bromo-1H-pyrazolo[3,4-d]pyrimidin-4-yl)piperidin-4-yl)-2-(4-chlorophenyl)-N,N-dimethylethan-1-amine] are 2.3, 0.912 nM, 3.63 nM, 2.75 nM and 1.38 nM.
The corresponding values for `CN(C)CCCC(O)(c1ccc(Cl)cc1)C1CCN(c2ncnc3[nH]nc(Br)c23)CC1` (stereo not shown) [Example 8, 1-(1-(3-bromo-1H-pyrazolo[3,4-d]pyrimidin-4-yl)piperidin-4-yl)-1-(4-chlorophenyl)-4-(dimethylamino)butan-1-ol] are 1.73, 2.57 nM, 6.03 nM, 3.47 nM and 0.955 nM.
As to `CN(C)CCNC(c1ccc(Cl)cc1)C1CCN(c2ncnc3[nH]nc(Br)c23)CC1` (stereo not shown) [Example 9, N^1-((1-(3-bromo-1H-pyrazolo[3,4-d]pyrimidin-4-yl)piperidin-4-yl)(4-chlorophenyl)methyl)-N^2,N^2-dimethylethane-1,2-diamine], the “Relative re-sensitisation ratio” value with PEO4 cells amounted to 1.5. Moreover, the IC50 is 1.2 nM on AKT1, 2.75 nM on AKT2, 1.95 nM at DNA-PK and 0.676 nM at AKT3.
In the case of `CN(C)CCCOC(c1ccc(Cl)cc1)C1CCN(c2ncnc3[nH]nc(Br)c23)CC1` (stereo not shown) [Example 10, 3-((1-(3-bromo-1H-pyrazolo[3,4-d]pyrimidin-4-yl)piperidin-4-yl)(4-chlorophenyl)methoxy)-N,N-dimethylpropan-1-amine], in the assay on PEO4 cells, the “Relative re-sensitisation ratio” value was determined as 1.5.
Consider `CN(C)CC(c1ccc(Cl)cc1)C1CCN(c2ncnc3[nH]nc(C(F)(F)F)c23)CC1` (stereo not shown) [Example 11, 2-(4-chlorophenyl)-N,N-dimethyl-2-(1-(3-(trifluoromethyl)-1H-pyrazolo[3,4-d]pyrimidin-4-yl)piperidin-4-yl)ethan-1-amine], for which the “Relative re-sensitisation ratio” value with PEO4 cells is given as 1.3. Also, the IC50 on AKT1 is 0.912 nM; on AKT2, 1.66 nM; on DNA-PK it was 1.7 nM; on AKT3, 0.316 nM.
As to `CN(C)CC(c1ccc(Cl)cc1)N1CCN(c2ncnc3[nH]nc(C(F)(F)F)c23)CC1` (stereo not shown) [Example 13, 2-(4-chlorophenyl)-N,N-dimethyl-2-(4-(3-(trifluoromethyl)-1H-pyrazolo[3,4-d]pyrimidin-4-yl)piperazin-1-yl)ethanamine], the “Relative re-sensitisation ratio” value in the assay with PEO4 cells came out at 1.2. The IC50 on AKT1 was 7.08 nM; at AKT2, 7.24 nM; on DNA-PK it was 1.86 nM; on AKT3, 2.95 nM.
With `CN(C)CCCCC(O)(c1ccc(Cl)cc1)C1CCN(c2ncnc3[nH]nc(Br)c23)CC1` (stereo not shown) [Example 14, 1-(1-(3-bromo-1H-pyrazolo[3,4-d]pyrimidin-4-yl)piperidin-4-yl)-1-(4-chlorophenyl)-5-(dimethylamino)pentan-1-ol], in the assay on PEO4 cells, the “Relative re-sensitisation ratio” value is on record as 1.2. In addition, the IC50 at AKT1 was 2.51 nM; at AKT2 it was 6.46 nM; at DNA-PK, 4.68 nM; on AKT3 it was 1.29 nM.
With `CN(C)CCCC(=C1CCN(c2ncnc3[nH]nc(C(F)(F)F)c23)CC1)c1ccc(Cl)cc1` [Example 15, 4-(4-chlorophenyl)-N,N-dimethyl-4-(1-(3-(trifluoromethyl)-1H-pyrazolo[3,4-d]pyrimidin-4-yl)piperidin-4-ylidene)butan-1-amine], the “Relative re-sensitisation ratio” value in the assay on PEO4 cells was found to be 1.1. For the same compound, the IC50 is 933 nM on AKT1, 490 nM at AKT2, 12 nM at DNA-PK and 158 nM on AKT3.
With `COc1ccc(O)c(C(=O)c2ccc(C(=O)N[C@@H]3CCCNC[C@H]3NC(=O)c3ccncc3)cc2)c1F` [Roche comp-4, N-{(3R,4R)-4-[4-(2-fluoro-6-hydroxy-3-methoxy-benzoyl)-benzoylamino]-azepan-3-yl}-isonicotinamide, reference compound], the figures for the IC50 at AKT2, at DNA-PK and at AKT3 were 170 nM, 8.51 nM and 209 nM, respectively.
In the case of `CN1N=C(N)c2cn([C@@H]3O[C@H](COP(=O)(O)O)[C@@H](O)[C@H]3O)c3ncnc1c23` [Triciribine phosphate, ((2R,3S,4R,5R)-5-(3-amino-5-methyl-1,4,5,6,8-pentaazaacenaphthylen-1(5H)-yl)-3,4-dihydroxytetrahydrofuran-2-yl)methyl dihydrogen phosphate, reference compound], the “Relative re-sensitisation ratio” value with PEO4 cells was found to be 1.0.

The values are drawn from patent US20230064189A1, “1H-PYRAZOLO[3,4-D]PYRIMIDINE COMPOUNDS USEFUL FOR THE TREATMENT OF PLATINUM-RESISTANT CANCER” (IMPERIAL COLLEGE INNOVATIONS LIMITED, priority 2019, published 2023).
